≈ marks a conversion by molar mass, not a printed value.
Legend:
[1] = Chemical stability against heat in manufacturing a solid dispersion with a twin screw extruder (melting method); format: physicochemical
Source text: Salts, a clathrate, a solid dispersion, and the like are known as methods of improving the solubility of a slightly water-soluble drug. However, with respect to compound A per se, it is expected that a salt of compound A is desalted, even if the solubility is improved, and that the inclusion ability of cyclodextrin, which is commonly used as a host of clathrates, is low.

[2] = Solubility, dissolution test of the 15th Edition of the Japanese Pharmacopoeia; format: physicochemical; conditions: thermodynamic from solid, without storage, read-out: Solubility of compound A

Chemical stability against heat [1]: low chemical stability against heat
solubility [2]: 2 µg/mL (≈ 4.14 µM)
SMILES: Cc1cccc(C)c1N(CC(=O)Nc1ccc(-c2ncon2)cc1)C(=O)C1CCS(=O)(=O)CC1 [Compound A, N-(2,6-Dimethylphenyl)-N-(2-{[4-(1,2,4-oxadiazol-3-yl)phenyl]amino}-2-oxoethyl)tetrahydro-2H-thiopyran-4-carboxamide 1,1-dioxide]

Reference: patent US9050326B2, “Amido derivatives-contained pharmaceutical composition” (priority 2008, dated 2015)
